Literature values, collected in patent USRE43580E1, “Nasal calcitonin formulations” (Unigene Laboratories, Inc., priority 2000, dated 2012).

How the values were obtained:
rhinitis medicamentosa = settings: healthy volunteers, decongestant nasal spray containing the preservative
[1] = system: mucocilary transport velocity; settings: ex vivo frog palate
nasal mucosa = settings: in vivo
[2] = system: respiratory mucosal tissue; settings: exposed in vitro
[3] = preservative in the nasal formulation

Rhinitis medicamentosa (rhinitis medicamentosa): aggravate rhintis rhinitis medicamentosa
Mucocilary transport velocity [1]: significant slowing
Morphology of respiratory mucosal tissue [2]: severe morphological alterations
Substance: benzalkonium chloride
Effect on nasal mucosa (nasal mucosa): adverse effect on nasal mucosa
Absorption of salmon calcitonin [3]: enhance the absorption of salmon calcitonin
